Results as given in the Bradley open melting point set (2014).
Structures can show the parent of a compound that is named as a salt.

Q: With COc1cccc2c1C(=O)c1c(O)c3c(c(O)c1C2=O)C[C@@](O)(C(=O)CO)C[C@@H]3O[C@H]1C[C@H](N)[C@H](O)[C@H](C)O1 [Doxorubicin] as the molecule, how does the melting point read?
A: 204 °C

Q: Which melting point does the source give for CC[C@H]1OC(=O)[C@H](C)[C@@H](O[C@H]2C[C@@](C)(OC)[C@@H](O)[C@H](C)O2)[C@H](C)[C@@H](O[C@@H]2O[C@H](C)C[C@H](N(C)C)[C@H]2O)[C@](C)(O)C[C@@H](C)C(=O)[C@H](C)[C@@H](O)[C@]1(C)O [Erythromycin] here?
A: 191 °C

Q: Which melting point does the source give for C[C@]12CC[C@@H]3c4ccc(O)cc4CC[C@H]3[C@@H]1CC[C@@H]2O [Estradiol] here?
A: 176 °C

Q: Which melting point does the source give for C[C@]12CC[C@@H]3c4ccc(O)cc4CC[C@H]3[C@@H]1C[C@@H](O)[C@@H]2O [Estriol] here?
A: 282 °C

Q: For O=C(Cl)C(=O)Cl [Ethanedioyl dichloride], which melting point is on record?
A: -9 °C

Q: Which melting point does the source give for CCc1cc(C(N)=S)ccn1 [Ethionamide] here?
A: 163 °C

Q: For C=COCC [Ethoxyethene], which melting point is on record?
A: -115 °C

Q: Which melting point does the source give for CCOC(=O)C(C#N)=Cc1ccccc1 [Ethyl 2-Cyano-3-Phenylacrylate] here?
A: 49 °C

Q: With CCOC(=O)C(C#N)=C(SC)SC [Ethyl 2-cyano-3,3-bis(methylsulfanyl)acrylate] as the molecule, how does the melting point read?
A: 54 °C

Q: For CCOC(=O)c1ccc(O)cc1 [Ethyl 4-hydroxybenzoate], which melting point is on record?
A: 116 °C

Q: For CCOC(=O)c1cc(C)[nH]n1 [Ethyl 5-methyl-1H-pyrazole-3-carboxylate], which melting point is on record?
A: 87 °C

Q: Which melting point does the source give for CCOC(=O)Cn1cnc2ncnc(Cl)c21 [Ethyl (6-chloro-7H-purin-7-yl)acetate] here?
A: 108 °C

Q: Which melting point does the source give for CCOC(C)=O [Ethyl acetate] here?
A: -84 °C

Q: For CCOC(=O)c1ccccc1 [Ethyl benzoate], which melting point is on record?
A: -34 °C

Q: For C=C(C)C(=O)OCC [Ethyl methacrylate], which melting point is on record?
A: -75 °C

Q: Which melting point does the source give for COc1cc([C@@H]2c3cc4c(cc3[C@@H](O[C@@H]3O[C@@H]5CO[C@@H](C)O[C@H]5[C@H](O)[C@H]3O)[C@H]3COC(=O)[C@H]23)OCO4)cc(OC)c1O [Etoposide] here?
A: 244 °C

Q: For CN(C)C(=O)Nc1ccccc1 [Fenuron], which melting point is on record?
A: 132 °C

Q: For O=C1OC2(c3ccc(O)cc3Oc3cc(O)ccc32)c2ccccc21 [Fluorescein], which melting point is on record?
A: 315 °C

Q: With CC(C(=O)O)c1ccc(-c2ccccc2)c(F)c1 (centres undefined) [Flurbiprofen] [listing 1 of 2 here] as the molecule, how does the melting point read?
A: 110 °C

Q: Which melting point does the source give for CC(C(=O)O)c1ccc(-c2ccccc2)c(F)c1 (centres undefined) [Flurbiprofen] [listing 2 of 2 here] here?
A: 110 °C

Q: For O=C(O)/C=C/C(=O)O [Fumaric Acid], which melting point is on record?
A: 287 °C

Q: For NS(=O)(=O)c1cc(C(=O)O)c(NCc2ccco2)cc1Cl [Furosemide], which melting point is on record?
A: 206 °C

Q: With COc1ccc(Cl)cc1C(=O)NCCc1ccc(S(=O)(=O)NC(=O)NC2CCCCC2)cc1 [Glibenclamide] as the molecule, how does the melting point read?
A: 170 °C

Q: With O=C(O)CO [Glycol acid] as the molecule, how does the melting point read?
A: 80 °C

Q: With NCC(=O)NCC(=O)O [Glycylglycine] as the molecule, how does the melting point read?
A: 258 °C

Q: Which melting point does the source give for Nc1nc2c(ncn2[C@@H]2O[C@@H](CO)[C@H](O)[C@H]2O)c(=O)[nH]1 [Guanosine] here?
A: 239 °C

Q: For COc1ccc(C(C)=CC(=O)O)c(OC)c1 [Hepadial], which melting point is on record?
A: 149 °C

Q: With CCCCCCCCCCCCCCCCCO [Heptadecan-1-ol] as the molecule, how does the melting point read?
A: 57 °C

Q: With CCCCC(=O)CC [Heptan-3-one] as the molecule, how does the melting point read?
A: -39 °C

Q: For CCCCCCC=O [Heptanal], which melting point is on record?
A: -43 °C

Q: For C=CCCCC [Hex-1-ene], which melting point is on record?
A: -140 °C

Q: Which melting point does the source give for Clc1c(Cl)c(Cl)c(Cl)c(Cl)c1Cl [Hexachlorobenzene] [listing 1 of 2 here] here?
A: 230 °C

Q: With Clc1c(Cl)c(Cl)c(Cl)c(Cl)c1Cl [Hexachlorobenzene] [listing 2 of 2 here] as the molecule, how does the melting point read?
A: 228 °C

Q: For CCCCCCCCCCCCCCCCO [Hexadecan-1-ol], which melting point is on record?
A: 50 °C

Q: For FC(F)(F)C(F)(F)F [Hexafluoroethane], which melting point is on record?
A: -100 °C

Q: For Cc1c(C)c(C)c(C)c(C)c1C [Hexamethylbenzene], which melting point is on record?
A: 167 °C

Q: Which melting point does the source give for C[C@]12CCC(=O)C=C1CC[C@@H]1[C@@H]2[C@@H](O)C[C@@]2(C)[C@H]1CC[C@]2(O)C(=O)CO [Hydrocortisone] [listing 1 of 2 here] here?
A: 218 °C

Q: With C[C@]12CCC(=O)C=C1CC[C@@H]1[C@@H]2[C@@H](O)C[C@@]2(C)[C@H]1CC[C@]2(O)C(=O)CO [Hydrocortisone] [listing 2 of 2 here] as the molecule, how does the melting point read?
A: 220 °C

Q: Which melting point does the source give for OO [Hydrogen peroxide] here?
A: -40 °C

Q: Which melting point does the source give for CC(C)Cc1ccc(C(C)C(=O)O)cc1 (centres undefined) [Ibuprofen] here?
A: 76 °C

Q: With O=c1[nH]c(=O)n([C@H]2C[C@H](O)[C@@H](CO)O2)cc1I [Idoxuridine] as the molecule, how does the melting point read?
A: 165 °C

Q: For COc1ccc2c(c1)c(CC(=O)O)c(C)n2C(=O)c1ccc(Cl)cc1 [Indomethacin], which melting point is on record?
A: 159 °C

Q: With CCC1(CCC(C)C)C(=O)NC(=O)NC1=O [Inmetal] as the molecule, how does the melting point read?
A: 156 °C

Q: With [O-][I+2]([O-])O [Iodic acid] as the molecule, how does the melting point read?
A: 110 °C

Q: For IC(I)I [Iodoform], which melting point is on record?
A: 122 °C

Q: Which melting point does the source give for CCCCC1=NC2(CCCC2)C(=O)N1Cc1ccc(-c2ccccc2-c2nnn[nH]2)cc1 [Irbesartan] here?
A: 180 °C

Q: With CC(C)C [Isobutane] as the molecule, how does the melting point read?
A: -160 °C

Q: For CC(C)C(=O)O [Isobutyric Acid], which melting point is on record?
A: -46 °C

Q: Which melting point does the source give for O=C=N/C1CCCCC1 [Isocyanatocyclohexane] here?
A: -80 °C

Q: With NNC(=O)c1ccncc1 [Isoniazid] as the molecule, how does the melting point read?
A: 171 °C

Q: With NNC(=O)c1ccncc1 [Isonicotinohydrazide] as the molecule, how does the melting point read?
A: 171 °C

Q: Which melting point does the source give for CCC(C)C [Isopentane] here?
A: -160 °C

Q: With CC(C)O [Isopropyl Alcohol] as the molecule, how does the melting point read?
A: -89.5 °C

Q: For CC(=O)N1CCN(c2ccc(OC[C@@H]3CO[C@@](Cn4ccnc4)(c4ccc(Cl)cc4Cl)O3)cc2)CC1 [Ketoconazole], which melting point is on record?
A: 146 °C

Q: Which melting point does the source give for CCCCCCCCCCCCCCCC(=O)OC[C@H](O)[C@H]1OC(=O)C(O)=C1O [L-ascorbic acid 6-palmitate] here?
A: 114 °C

Q: For O=C[C@H](O)[C@H](O)[C@@H](O)CO [L-lyxose], which melting point is on record?
A: 110 °C

Q: Which melting point does the source give for OC[C@@H]1OC(O)[C@@H](O)[C@H]1O (stereo partly drawn) [L-ribose] here?
A: 87 °C

Q: For O=C(O)[C@H](O)[C@@H](O)C(=O)O [L-tartaric acid], which melting point is on record?
A: 169 °C

Q: For CC(C)[C@H](N)C(=O)O [L-valine], which melting point is on record?
A: 315 °C

Q: Which melting point does the source give for CC(CCc1ccccc1)NCC(O)c1ccc(O)c(C(N)=O)c1 (centres undefined) [Labetalol] here?
A: 196 °C

Q: For c1ccc([C@H]2CN3CCSC3=N2)cc1 [Levamisole], which melting point is on record?
A: 264 °C

Q: For C#C[C@]1(O)CC[C@H]2[C@@H]3CCC4=CC(=O)CC[C@@H]4[C@H]3CC[C@@]21CC [Levonorgestrel], which melting point is on record?
A: 236 °C

Q: With N[C@@H](Cc1cc(I)c(Oc2cc(I)c(O)c(I)c2)c(I)c1)C(=O)O [Levothyroxine] as the molecule, how does the melting point read?
A: 236 °C

Q: Which melting point does the source give for O=C1Nc2ccc(Cl)cc2C(c2ccccc2Cl)=NC1O (centres undefined) [Lorazepam] here?
A: 167 °C

Q: For CC[C@H](C)C(=O)O[C@H]1C[C@@H](C)C=C2C=C[C@H](C)[C@H](CC[C@@H]3C[C@@H](O)CC(=O)O3)[C@H]21 [Lovastatin], which melting point is on record?
A: 174 °C

Q: For OCC(O)C(O)C(O)C(O)CO (centres undefined) [Mannitol], which melting point is on record?
A: 168 °C

Q: For CCCCOC(=O)c1ccc(O)cc1 [Mekkings B], which melting point is on record?
A: 72 °C

Q: Which melting point does the source give for Cc1cnc(NC(=O)C2=C(O)c3ccccc3S(=O)(=O)N2C)s1 [Meloxicam] here?
A: 254 °C

Q: With NC(Cc1ccc(N(CCCl)CCCl)cc1)C(=O)O (centres undefined) [Melphalan] as the molecule, how does the melting point read?
A: 182 °C

Q: For CCCC(C)(COC(N)=O)COC(N)=O [Meprobamate], which melting point is on record?
A: 105 °C

Q: Which melting point does the source give for Cc1cc(C)cc(C)c1 [Mesitylene] here?
A: -45 °C

Q: Which melting point does the source give for COCC(=O)N(c1c(C)cccc1C)C(C)C(=O)OC (centres undefined) [Metalaxyl] here?
A: 72 °C

Q: For CS [Methanethiol], which melting point is on record?
A: -121 °C

Q: With Cn1cc[nH]c1=S [Methimazole] as the molecule, how does the melting point read?
A: 146 °C

Q: With COC(=O)c1ccc(N)cc1 [Methyl 4-aminobenzoate] as the molecule, how does the melting point read?
A: 114 °C

Q: Which melting point does the source give for COC(=O)c1ccc(C=O)cc1 [Methyl 4-formylbenzoate] here?
A: 61 °C

Q: For COC(C)=O [Methyl acetate], which melting point is on record?
A: -98 °C

Q: Which melting point does the source give for COC=O [Methyl formate] here?
A: -100 °C

Q: For CCCCCC(=O)OC [Methyl hexanoate], which melting point is on record?
A: -71 °C

Q: Which melting point does the source give for CC1CCCCC1 [Methylcyclohexane] here?
A: -127 °C

Q: Which melting point does the source give for c1ccc(P(CP(c2ccccc2)c2ccccc2)c2ccccc2)cc1 [Methylenebis(diphenylphosphine)] here?
A: 121 °C

Q: Which melting point does the source give for Cc1ncc2n1-c1ccc(Cl)cc1C(c1ccccc1F)=NC2 [Midazolam] here?
A: 159 °C

Q: For COc1ccc(OC)c(C(O)CNC(=O)CN)c1 (centres undefined) [Midodrine], which melting point is on record?
A: 202 °C

Q: For Nc1cc(N2CCCCC2)nc(N)[n+]1[O-] [Minoxidil], which melting point is on record?
A: 248 °C

Q: Which melting point does the source give for CN(C)C(=O)Nc1ccc(Cl)cc1 [Monuron] here?
A: 174 °C

Q: For COc1c(N2C[C@@H]3CCCN[C@@H]3C2)c(F)cc2c(=O)c(C(=O)O)cn(C3CC3)c12 [Moxifloxacin], which melting point is on record?
A: 240 °C

Q: For CCCC(=O)NNc1ccccc1 [N'-phenylbutanehydrazide], which melting point is on record?
A: 104 °C

Q: Which melting point does the source give for O=C(N[C@@H](Cc1c[nH]c2ccccc12)C(=O)O)OCc1ccccc1 [N(alpha)-benzyloxycarbonyl-l-tryptophan] here?
A: 124 °C

Q: Which melting point does the source give for Cc1cc(-c2ccc(NC=O)c(C)c2)ccc1NC=O [N,N'-(3,3'-dimethylbiphenyl-4,4'-diyl)diformamide] here?
A: 268 °C

Q: For O=CNC1C/C=C/CC(NC=O)C/C=C/C1 (centres undefined) [N,N'-(3E,8E)-cyclodeca-3,8-diene-1,6-diyldiformamide], which melting point is on record?
A: 234 °C

Q: For O=[N+]([O-])c1cc(C=Nc2ccccc2)ccc1C=Nc1ccccc1 [N,N'-[(2-nitrobenzene-1,4-diyl)di(E)methylylidene]dianiline], which melting point is on record?
A: 134 °C

Q: For Oc1ccccc1C=NCCCN=Cc1ccccc1O [N,N'-bis(salicylidene)-1,3-propanediamine], which melting point is on record?
A: 52 °C

Q: Which melting point does the source give for CCCCNC(=O)NCCCC [N,N'-di-n-butylurea] here?
A: 72 °C

Q: With CCN(CC)CC [N,N-Diethylethanamine] as the molecule, how does the melting point read?
A: -115 °C

Q: For CCN(CC)c1ccc(N=O)cc1 [N,N-diethyl-4-nitrosoaniline], which melting point is on record?
A: 82 °C

Q: With CN(C)CCCN [N,N-dimethyl-1,3-propanediamine] as the molecule, how does the melting point read?
A: -70 °C

Q: With CN(C)c1ccc(C2CNCCN2)cc1 (centres undefined) [N,N-dimethyl-4-(2-piperazinyl)aniline] as the molecule, how does the melting point read?
A: 128 °C

Q: With CN(C)c1ccc([N+](=O)[O-])cc1 [N,N-dimethyl-4-nitroaniline] as the molecule, how does the melting point read?
A: 165 °C

Q: For CCCCCCCCN(C)C [N,N-dimethyl-n-octylamine], which melting point is on record?
A: -57 °C
